According to patent publication US20050182105A1 (priority 2004, published 2005):
pKd: −log10 of the molar value.

How the values were obtained:
AR = target: T1, AR (Rattus norvegicus, UniProt P15207)
T1 sequence (P15207 1-902): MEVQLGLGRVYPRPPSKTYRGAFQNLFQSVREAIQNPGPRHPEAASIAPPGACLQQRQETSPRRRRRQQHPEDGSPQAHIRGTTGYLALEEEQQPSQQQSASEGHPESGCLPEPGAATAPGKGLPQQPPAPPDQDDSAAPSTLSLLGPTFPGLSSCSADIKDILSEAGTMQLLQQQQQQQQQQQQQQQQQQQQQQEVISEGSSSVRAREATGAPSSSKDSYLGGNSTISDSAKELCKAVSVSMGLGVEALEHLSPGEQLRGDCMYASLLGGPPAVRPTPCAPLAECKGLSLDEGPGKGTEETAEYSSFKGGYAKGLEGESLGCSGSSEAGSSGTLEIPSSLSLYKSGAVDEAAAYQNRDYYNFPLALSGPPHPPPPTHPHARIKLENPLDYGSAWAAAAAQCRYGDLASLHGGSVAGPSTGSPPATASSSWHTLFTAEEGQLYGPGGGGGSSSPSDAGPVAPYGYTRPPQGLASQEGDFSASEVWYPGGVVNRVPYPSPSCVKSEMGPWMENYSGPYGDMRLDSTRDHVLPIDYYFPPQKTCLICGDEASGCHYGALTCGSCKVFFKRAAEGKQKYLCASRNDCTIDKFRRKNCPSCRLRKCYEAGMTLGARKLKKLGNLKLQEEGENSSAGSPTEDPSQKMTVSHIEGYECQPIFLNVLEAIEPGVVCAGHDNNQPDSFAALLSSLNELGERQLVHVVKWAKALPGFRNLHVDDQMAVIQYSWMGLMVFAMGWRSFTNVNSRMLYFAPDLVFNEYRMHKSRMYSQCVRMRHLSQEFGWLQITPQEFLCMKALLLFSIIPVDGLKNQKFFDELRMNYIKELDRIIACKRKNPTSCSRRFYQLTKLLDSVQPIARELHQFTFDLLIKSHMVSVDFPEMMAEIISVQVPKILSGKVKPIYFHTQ
Excerpt: Biol. Med., 83, 175 (1953); B. L. Beyler et al, “Methods for evaluating anabolic and catabolic agents in laboratory animals”, J. Amer. Med. Women's Ass., 23, 708 (1968); H. Fukuda et al., “Investigations of the levator ani muscle as an anabolic steroid assay”, Nago Dai. Yak. Ken. Nem. 14, 84 (1966) the disclosures of which are herein incorporated by reference.
The basis of this assay lies in the well-defined action of androgenic agents on the maintenance and growth of muscle tissues and sexual accessory organs in animals and man. […] J. Anat. […] Ital. Biol. Sper. […] II. […] Ital. Biol. Sper. 42, 1600 (1966); A. Boris et al., Steroids 15, 61 (1970). As described above, the effects of androgens on maintenance of male sexual accessory organs, such as the prostate and seminal vesicles, is well described. Castration results in rapid involution and atrophy of the prostate and seminal vesicles. This effect can be reversed by exogenous addition of androgens. Since both the levator ani muscle and the male sex organs are the tissues most responsive to the effects of androgenic agents, this model is used to determine the androgen dependent reversal of atrophy in the levator ani muscle and the sex accessory organs in immature castrated rats. Sexually mature rats (200-250 g, 6-8 weeks-old, Sprague-Dawley, Harlan) were acquired castrated from the vendor […]. […]

glucocorticoid receptor = glucocorticoid receptor (Homo sapiens, UniProt P04150); test: cell-based; settings: A549, read-out: % inhibition of the reporter system as compared to the buffer control with 10 ng/mL PMA alone
glucocorticoid receptor, sequence (P04150 whole entry): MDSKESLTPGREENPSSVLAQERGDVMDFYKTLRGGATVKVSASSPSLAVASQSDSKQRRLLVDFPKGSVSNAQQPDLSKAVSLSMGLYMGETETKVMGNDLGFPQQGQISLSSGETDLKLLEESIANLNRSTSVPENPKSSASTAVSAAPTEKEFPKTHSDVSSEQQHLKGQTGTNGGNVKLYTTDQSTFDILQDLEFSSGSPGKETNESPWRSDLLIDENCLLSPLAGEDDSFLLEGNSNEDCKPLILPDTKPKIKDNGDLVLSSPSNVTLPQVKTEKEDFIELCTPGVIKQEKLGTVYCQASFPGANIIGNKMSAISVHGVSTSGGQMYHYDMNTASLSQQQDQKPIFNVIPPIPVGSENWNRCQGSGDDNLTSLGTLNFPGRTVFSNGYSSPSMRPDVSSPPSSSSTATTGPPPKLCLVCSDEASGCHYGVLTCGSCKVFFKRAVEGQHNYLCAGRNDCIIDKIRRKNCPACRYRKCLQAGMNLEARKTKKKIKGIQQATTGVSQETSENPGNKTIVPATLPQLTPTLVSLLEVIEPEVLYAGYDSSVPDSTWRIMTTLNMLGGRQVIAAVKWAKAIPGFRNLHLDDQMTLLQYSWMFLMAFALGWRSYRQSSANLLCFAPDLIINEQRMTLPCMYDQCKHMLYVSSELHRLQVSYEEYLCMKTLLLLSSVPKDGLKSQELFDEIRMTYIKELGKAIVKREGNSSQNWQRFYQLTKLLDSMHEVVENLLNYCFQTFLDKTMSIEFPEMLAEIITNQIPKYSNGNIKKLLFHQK
Protocol: The AP-1 assay is a cell-based luciferase reporter assay. A549 cells, which contain endogenous glucocorticoid receptor, were stably transfected with an AP-1 DNA binding site attached to the luciferase gene. Cells are then grown in RPMI+10% fetal calf serum (charcoal-treated)+Penicillin/Streptomycin with 0.5 mg/mL geneticin. Cells are plated the day before the assay at approximately 40000 cells/well. On assay day, the media is removed by aspiration and 20 μL assay buffer (RPMI without phenol red+10% FCS (charcoal-treated)+Pen/Strep) is added to each well. At this point either 20 μL assay buffer (control experiments), the compounds of the present invention (“test compounds”) (dissolved in DMSO and added at varying concentrations) or dexamethasome (100 nM in DMSO, positive control) are added to each well. The plates are then pre-incubated for 15 min at 37° C., followed by stimulation of the cells with 10 ng/mL PMA. The plates are then incubated for 7 h at 37° C. after which 40 μL luciferase substrate reagent is added to each well. Activity is measured by analysis in a luminometer as compared to control experiments treated with buffer or dexamethasome.

[1] = system: wild type AR (MDA 453 cells); settings: read-out: Kd for [3H]-DHT, Scatchard analysis, 4 h at 37° C.
Protocol: For the whole-cell binding assay, human LNCaP cells (T877A mutant AR) or MDA 453 (wild type AR) in 96-well microtiter plates containing RPMI 1640 or DMEM supplemented with 10% charcoal stripped CA-FBS (Cocaleco Biologicals) respectively, were incubated at 37° C. to remove any endogenous ligand that might be complexed with the receptor in the cells.
For the saturation analysis, the difference between the total binding and the non-specific binding, was defined as specific binding. […] See e.g. D. Rodbard, Mathematics and statistics of ligand assays: an illustrated guide: In: J. Langon and J. J. Clapp, eds., Ligand Assay, Masson Publishing U.S.A., Inc., New York, pp. 45-99, (1981), the disclosure of which is herein incorporated by reference.
Two replicates were used for each sample. […] After correcting for non-specific binding, IC50 values were determined. […] C2C12 Mouse Myoblast Transactivation Assay

CCC(=O)O[C@H]1CC[C@H]2[C@@H]3CCC4=CC(=O)CC[C@]4(C)[C@H]3CC[C@]12C [TP, testosterone propionate]
EC50 (increase in organ weight) (AR; castrated rats, organ weight): ~0.03 mg
potency relative to free T (AR; higher potency than free T): 10-30 fold

C[C@@H]1C[C@H]2[C@@H]3CCC4=CC(=O)C=C[C@]4(C)[C@@]3(F)[C@@H](O)C[C@]2(C)[C@@]1(O)C(=O)CO [dexamethasone]
inhibition at 10 µM (glucocorticoid receptor): 65%

tritiated dihydrotestosterone [[^3H]-DHT]
pKd [1]: 9.15
